These results are taken from US20100086623A1, “Chemical Combination for the Generation of Disinfectant and Heat” (priority 2004, published 2010).

SMILES strings stand for the structures.

The subject of the test is Staphylococcus aureus. Description: Destruction of S. aureus cultures by aqueous chlorine dioxide solutions (plate counts). The test is classed as cell-based. As to the method:
In this test, S. aureus cells were suspended in Butterfield's phosphate buffer diluent with a pH of 7.2. The density of each of these robust collections of S. aureus suspensions was approximately 10^7 colony-forming-units per mL (10^7 CFU/mL). […] Cell counts were made on samples recovered on Baird-Parker Agar with EY-Tellurite and incubated at 35° C. for 48 hours. […] In these test results, S. aureus survival was detected only at the most dilute chlorine dioxide solutions (0.044 ppm). […] This observation is consistent with lethality of chemical agents for destroying microorganisms being the mathematical product of the concentration of the lethal agent (C) and the time (t) of exposure, (C×t).

For the molecule `[O][Cl+][O-]` [chlorine dioxide], under “0.044 ppm chlorine dioxide solution, exposure 24 hours”, the “inactivation of the pathogens” value is 100%. The survivors ([ClO2] 0.044 ppm, 30° C., 3-5 min exposure) amounted to 3.4% survivors. Further, the “CFU/mL × 10^−6” value ([ClO2] 0.044 ppm, 30° C., 3-5 min exposure, control 3.4) was determined as 0.116 CFU/mL × 10^−6; the “CFU/mL × 10^−6” value ([ClO2] 0.044 ppm, exposure for 24 h) was 0.00 CFU/mL × 10^−6; the “CFU/mL × 10^−6” value ([ClO2] 0.044 ppm, exposure over night) was <1.0 × 10^−4 CFU/mL × 10^−6; the “CFU/mL × 10^−6” value ([ClO2] 0.44 ppm, 30° C., 3-5 min exposure, control 9.55) was determined as 0 CFU/mL × 10^−6; the “CFU/mL × 10^−6” value ([ClO2] 4.4 ppm, 30° C., 3-5 min exposure, control 3.4) is listed as 0.00 CFU/mL × 10^−6; the “CFU/mL × 10^−6” value ([ClO2] 44 ppm, 30° C., 3-5 min exposure, control 9.55) came out at 0.00 CFU/mL × 10^−6.
